What was measured:
[1] = tested on: phenylephrine-contracted cephalic veins; assay: Canine cephalic vein assay: relaxing phenylephrine-contracted cephalic veins; assay type: cell-based; conditions: relaxing phenylephrine-contracted canine cephalic veins in vitro, ±SEM
Description: (§1) All six compounds were tested in the Purkinje fiber and canine cephalic vein assays taught by Steinberg et al., Journal of Cardiovascular Pharmacology, 12 (Suppl. 2), S30-S40 (1988). The effective concentration for reducing the Purkinje fiber action potential duration and for relaxing phenylephrine-contracted cephalic veins, respectively, otherwise known as the EC50, was determined for each compound and is reported in Table I.

[2] = tested on: Purkinje fiber; assay: Purkinje fiber assay: reducing the Purkinje fiber action potential duration; assay type: cell-based; conditions: reducing canine Purkinje fiber action potential duration in vitro, ±SEM
Description: as §1

[3] = tested on: spontaneously hypertensive rats; conditions: cited from earlier work
[4] = tested on: potassium channels; assay: Potency as potassium channel opener (comparison of isomers); conditions: compared with its (+) enantiomer, pinacidil, or any of the pinacidil enantiomers
Source text: Pinacidil is currently undergoing clinical trials to determine its antihypertensive potential. By virtue of the branched N-alkyl side chain, pinacidil is a mixture of two enantiomers. Recently, both enantiomers have been prepared and studied -- see, Weston et al., Drugs, 36 (Suppl. 7), 10 (1988).

[5] = tested on: potassium channels; conditions: reported by Weston et al., Drugs, 36 (Suppl. 7), 10 (1988); cited from earlier work
[6] = Canis lupus familiaris, purkinje

Compound	EC50 ([1]; Canis lupus familiaris) [nM]	EC50 [2, 6] [nM]	EC50 [1] [nM]	EC50 [2] [nM]	minimal effective dose (MED) to decrease blood pressure [3] [mg/kg]	relative potency as a potassium channel opener [4]	relative potency of pinacidil enantiomers [5]
CC(N/C(=N\C#N)Nc1ccncc1)C(C)(C)C (racemic) [(±)-Pinacidil, N"-cyano-N-4-pyridyl-N'-1,2,2-trimethylpropylguanidine]	760 ± 120	3000 ± 1000			0.5		
CC(NC(=NC#N)Nc1cccnc1)C(C)(C)C (racemic) [N"-cyano-N-3-pyridyl-N'-1,2,2-trimethylpropylguanidine]	560 ± 140	500 ± 30			1		
CC(NC(=NC#N)Nc1ccncc1)C(C)(C)C (single isomer, unassigned; (+)) [(+)-Pinacidil]			9550 ± 70	55000 ± 9600			
CC(NC(=NC#N)Nc1cccnc1)C(C)(C)C (single isomer, unassigned; (-)) [(-)-N"-cyano-N-3-pyridyl-N'-1,2,2-trimethylpropylguanidine]			90 ± 30	430 ± 260		considerably more potent	

Now from value to molecule, other results behind:

EC50 ([1]; Canis lupus familiaris) [nM]	EC50 [2, 6] [nM]	EC50 [1] [nM]	EC50 [2] [nM]	Compound	minimal effective dose (MED) to decrease blood pressure [3] [mg/kg]	relative potency as a potassium channel opener [4]	relative potency of pinacidil enantiomers [5]
		6410 ± 1800	23000 ± 4700	CC(NC(=NC#N)Nc1cccnc1)C(C)(C)C (single isomer, unassigned; (+)) [(+)-N"-cyano-N-3-pyridyl-N'-1,2,2-trimethylpropylguanidine]			
		440 ± 100	3200 ± 1200	CC(NC(=NC#N)Nc1ccncc1)C(C)(C)C (single isomer, unassigned; (-)) [(-)-Pinacidil]			more potent than the (+) isomer

Source: US5264445A, “(-)-N"-cyano-N-3-pyridyl-N'-1,2,2-trimethylpropylguanidine” (Eli Lilly and Company, priority 1992, dated 1993)
